Entries after “also recorded” stand apart in the source; their conditions may differ.
Experiments:
[1] = stability in water solution; type: physicochemical; details: decomposition especially at a low pH
solubility in water = type: physicochemical
[2] = administered intravenously to a human patient; average; cited from earlier work

Structure (SMILES)	stability in water solutions [1]	solubility in water (solubility in water)	half-life of elimination [2]
CC(C)(C)OC(=O)N1CC2CC(CN(C[C@H](O)COc3ccc(C#N)cc3)C2)C1 [Compound A, 3,7-diazabicyclo[3.3.1]-nonane-3-carboxylic acid, 7-[(2S)-3-(4-cyanophenoxy)-2-hydroxypropyl]-1,1-dimethylethyl ester]	unstable in water solutions; also recorded: decomposition in water solution	poorly soluble in water; also recorded: low water solubility	
CCCCCCCN(CC)CCCC(O)c1ccc(NS(C)(=O)=O)cc1 (stereo not drawn) [ibutilide]			around 6 hours

From patent US6492382B1, “Dried or frozen pharmaceutical preparation containing a class III antiarrhythmic compound” (AstraZeneca AB, priority 1998, dated 2002)
